Data: publication PMC5001167 (Journal of medicinal chemistry, 2016)
“Also recorded” adds a separate entry of the source.

What was measured:
5HT1A = biological target: T1, 5HT1A (Homo sapiens, UniProt P08908); assay: 5HT1A [35S]GTPγS binding functional assay; format: biochemical
T1 sequence (P08908 1-422): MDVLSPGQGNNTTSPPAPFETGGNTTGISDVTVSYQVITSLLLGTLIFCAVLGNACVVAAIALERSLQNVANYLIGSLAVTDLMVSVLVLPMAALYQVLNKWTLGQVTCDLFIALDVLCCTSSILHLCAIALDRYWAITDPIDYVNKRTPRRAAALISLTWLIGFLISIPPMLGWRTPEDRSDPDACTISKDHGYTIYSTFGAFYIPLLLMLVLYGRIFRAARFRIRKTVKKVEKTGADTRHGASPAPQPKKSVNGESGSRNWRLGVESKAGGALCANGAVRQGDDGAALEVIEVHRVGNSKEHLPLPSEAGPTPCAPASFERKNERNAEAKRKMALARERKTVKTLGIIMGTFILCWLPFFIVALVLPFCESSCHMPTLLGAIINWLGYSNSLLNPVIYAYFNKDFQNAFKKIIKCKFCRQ

[1] = cited from earlier work
Long-Evans rats = assay: Oxycodone-induced conditioned place preference; format: in vivo, rat
kappa opioid receptor = kappa opioid receptor (Homo sapiens, UniProt P41145); assay: Opioid receptor binding at 10 μM; settings: at a concentration of 10 μM
mu opioid receptor = mu opioid receptor (Homo sapiens, UniProt P35372); assay: Opioid receptor binding at 10 μM; settings: at a concentration of 10 μM
C57BL/6J mice = assay: Locomotor activity, basal and oxycodone-induced, open-field chambers
delta opioid receptor = delta opioid receptor (Homo sapiens, UniProt P41143); assay: Opioid receptor binding at 10 μM; settings: at a concentration of 10 μM
D2R = settings: read-out: D2R Ki; eticlopride; cited from earlier work
dogs = settings: cited from earlier work
human D2LR = human D2LR (Homo sapiens, UniProt P14416); format: binding; settings: read-out: D2LR Ki ± S.E.M.; full-length analogues, Table 2; HEK 293
human D4.4R = biological target: T2, human D4.4R (Homo sapiens, UniProt P21917); format: binding; settings: read-out: D4.4R Ki ± S.E.M.; full-length analogues, Table 2; HEK 293
T2 sequence (P21917 1-419): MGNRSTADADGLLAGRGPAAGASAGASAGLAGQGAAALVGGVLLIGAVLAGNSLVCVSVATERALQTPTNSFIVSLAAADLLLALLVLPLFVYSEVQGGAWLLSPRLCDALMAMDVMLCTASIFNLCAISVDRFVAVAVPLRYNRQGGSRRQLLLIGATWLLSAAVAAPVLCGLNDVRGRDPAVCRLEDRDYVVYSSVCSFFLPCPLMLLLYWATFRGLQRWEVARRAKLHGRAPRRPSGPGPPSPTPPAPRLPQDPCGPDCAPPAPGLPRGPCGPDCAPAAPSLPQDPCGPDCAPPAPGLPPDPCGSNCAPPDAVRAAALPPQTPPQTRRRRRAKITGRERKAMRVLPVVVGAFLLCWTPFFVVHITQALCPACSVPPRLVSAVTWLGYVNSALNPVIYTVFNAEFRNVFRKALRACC

human D3R = human D3R (Homo sapiens, UniProt P35462); format: binding; settings: Table 2
Chain of human D3R (P35462 whole entry): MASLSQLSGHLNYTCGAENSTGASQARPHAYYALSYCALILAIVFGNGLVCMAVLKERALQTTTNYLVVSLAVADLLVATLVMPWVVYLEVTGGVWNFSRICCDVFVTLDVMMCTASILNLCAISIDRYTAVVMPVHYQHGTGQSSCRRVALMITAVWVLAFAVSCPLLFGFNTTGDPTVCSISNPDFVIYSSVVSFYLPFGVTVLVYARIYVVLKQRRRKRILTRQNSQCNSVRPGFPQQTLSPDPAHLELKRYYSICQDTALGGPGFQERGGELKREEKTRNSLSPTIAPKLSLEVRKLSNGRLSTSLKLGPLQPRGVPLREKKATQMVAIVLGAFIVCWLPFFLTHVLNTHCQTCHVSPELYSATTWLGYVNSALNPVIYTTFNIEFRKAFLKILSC

Chain of mu opioid receptor (P35372 whole entry): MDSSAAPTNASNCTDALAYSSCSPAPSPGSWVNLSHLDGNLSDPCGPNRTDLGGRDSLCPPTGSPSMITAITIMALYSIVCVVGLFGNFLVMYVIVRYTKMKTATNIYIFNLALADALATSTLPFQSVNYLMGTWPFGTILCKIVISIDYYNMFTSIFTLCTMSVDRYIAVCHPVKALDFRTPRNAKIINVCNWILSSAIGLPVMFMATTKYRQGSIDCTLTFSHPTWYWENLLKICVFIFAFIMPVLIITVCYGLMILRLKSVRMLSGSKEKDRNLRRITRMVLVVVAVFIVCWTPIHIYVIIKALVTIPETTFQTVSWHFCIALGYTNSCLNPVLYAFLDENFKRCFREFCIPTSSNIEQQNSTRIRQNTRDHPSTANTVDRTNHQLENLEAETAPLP
Chain of kappa opioid receptor (P41145 whole entry): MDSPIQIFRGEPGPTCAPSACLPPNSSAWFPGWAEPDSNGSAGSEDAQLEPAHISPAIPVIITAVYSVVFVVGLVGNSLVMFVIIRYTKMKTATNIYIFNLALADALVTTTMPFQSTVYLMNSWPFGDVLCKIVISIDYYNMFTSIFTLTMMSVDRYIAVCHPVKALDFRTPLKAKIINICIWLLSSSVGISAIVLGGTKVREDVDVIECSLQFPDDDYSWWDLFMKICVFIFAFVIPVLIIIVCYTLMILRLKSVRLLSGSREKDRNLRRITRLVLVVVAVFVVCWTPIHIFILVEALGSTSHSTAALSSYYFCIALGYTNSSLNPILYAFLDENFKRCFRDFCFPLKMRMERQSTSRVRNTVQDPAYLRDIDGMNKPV
Chain of delta opioid receptor (P41143 whole entry): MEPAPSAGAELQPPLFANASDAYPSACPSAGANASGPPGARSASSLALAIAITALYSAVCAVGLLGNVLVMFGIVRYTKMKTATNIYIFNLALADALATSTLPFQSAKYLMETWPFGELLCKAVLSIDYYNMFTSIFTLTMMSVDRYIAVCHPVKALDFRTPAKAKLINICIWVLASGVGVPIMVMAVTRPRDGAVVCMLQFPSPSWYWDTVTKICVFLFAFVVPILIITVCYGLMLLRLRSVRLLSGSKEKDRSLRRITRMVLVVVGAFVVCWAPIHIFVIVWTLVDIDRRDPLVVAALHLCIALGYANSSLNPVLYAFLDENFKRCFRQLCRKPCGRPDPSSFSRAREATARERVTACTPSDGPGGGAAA
Chain of human D2LR (P14416 whole entry): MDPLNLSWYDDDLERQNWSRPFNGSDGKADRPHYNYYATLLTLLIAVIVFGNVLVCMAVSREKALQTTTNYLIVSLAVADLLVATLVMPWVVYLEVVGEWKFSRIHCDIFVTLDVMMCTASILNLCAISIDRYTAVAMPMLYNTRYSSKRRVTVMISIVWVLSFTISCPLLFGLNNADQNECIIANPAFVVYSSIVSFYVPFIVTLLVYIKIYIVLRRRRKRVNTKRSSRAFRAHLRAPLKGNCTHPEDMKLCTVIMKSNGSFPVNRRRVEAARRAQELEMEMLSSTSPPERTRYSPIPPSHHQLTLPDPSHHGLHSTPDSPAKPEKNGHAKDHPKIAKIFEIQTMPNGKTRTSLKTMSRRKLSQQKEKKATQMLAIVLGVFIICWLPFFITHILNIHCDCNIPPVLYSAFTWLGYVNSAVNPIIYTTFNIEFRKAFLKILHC

Compound: CCc1cccc(N2CCN(CC(O)CCNC(=O)c3cc4ccccc4o3)CC2)c1Cl (stereo not shown) [Compound 25, N-(4-(4-(2-Chloro-3-ethylphenyl)piperazin-1-yl)-3-hydroxybutyl)benzofuran-2-carboxamide]
- functional profile at 5HT1A (5HT1A): functional agonists

Compound: O=C(NCC[C@@H](O)CN1CCN(c2cccc(Cl)c2Cl)CC1)c1cc2ccccc2[nH]1 [R-PG648]
- metabolic stability [1]: metabolic instability

Compound: CCc1cc(Cl)c(OC)c(N2CCN(CC(O)CCNC(=O)c3cc4ccccc4[nH]3)CC2)c1 (stereo not shown) [Compound 19, N-(4-(4-(3-Chloro-5-ethyl-2-methoxyphenyl)piperazin-1-yl)-3-hydroxybutyl)-1H-indole-2-carboxamide]
- effect on oxycodone-induced CPP at 15 mg/kg (Long-Evans rats; rats, 15 mg/kg i.p., p<0.05 compared to (Vehicle + oxycodone) group): significant reduction
- CPP produced by compound alone (Long-Evans rats; rats, 15 mg/kg i.p., paired with saline, 15 mg/kg): did not produce CPP; also recorded: did not produce significant place preference
- effect on oxycodone-induced CPP (Long-Evans rats; rats, 5, 15 mg/kg i.p. 15 min before each oxycodone injection (3 mg/kg i.p.)): dose-dependently attenuated; also recorded: dose-dependently blocked
- binding to kappa opioid receptor (kappa opioid receptor): does not bind
- binding to mu opioid receptor (mu opioid receptor): does not bind
- effect on acute oxycodone-induced hyperactivity (C57BL/6J mice; mice, 5, 15 mg/kg i.p. 15 min before oxycodone 4 mg/kg, day 2): attenuated; also recorded: dose-dependently inhibited
- effect on basal locomotor activity (C57BL/6J mice; mice, 5, 15 mg/kg i.p. alone, day 1): no effect on locomotion
- effect on acquisition of repeated oxycodone-induced locomotor sensitization (C57BL/6J mice; mice, 5, 15 mg/kg i.p. daily before oxycodone 4 mg/kg, day 2-day 6): dose-dependently blocked
- effect on expression of oxycodone prime-induced locomotor sensitization after 2 days of withdrawal (C57BL/6J mice; mice, day 9, oxycodone 4 mg/kg challenge without pretreatment): blocked; also recorded: long-lasting inhibition
- binding to delta opioid receptor (delta opioid receptor): does not bind

Compound: CCc1cccc(N2CCN(CCCCNC(=O)c3cc4ccccc4o3)CC2)c1Cl [Compound 24, N-(4-(4-(2-Chloro-3-ethylphenyl)piperazin-1-yl)butyl)benzofuran-2-carboxamide]
- functional profile at 5HT1A (5HT1A): functional agonists

Compound: CCc1cccc(N2CCN(CCCCNC(=O)c3cc4ccccc4[nH]3)CC2)c1Cl [Compound 22, N-(4-(4-(2-Chloro-3-ethylphenyl)piperazin-1-yl)butyl)-1H-indole-2-carboxamide]
- functional profile at 5HT1A (5HT1A): functional agonists

Compound: COc1ccc2c3c1O[C@H]1C(=O)CC[C@@]4(O)[C@@H](C2)N(C)CC[C@]314 [oxycodone, reference compound]
- CPP produced by oxycodone (Long-Evans rats; rats, oxycodone 3 mg/kg i.p. versus saline conditioning): produced significant CPP
- effect of oxycodone on locomotor activity (C57BL/6J mice; mice, oxycodone 4 mg/kg i.p.): significant increases in locomotor activity

Compound: CCc1cc(Cl)c(OC)c(C(=O)NC[C@@H]2CCCN2CC)c1O [Eticlopride]
- Ki (D2R): 0.086 nM

Compound: Cc1ncoc1-c1nnc(SCCCN2C[C@@H]3C[C@]3(c3ccc(C(F)(F)F)cc3F)C2)n1C [GSK598,809]
- blood pressure effect in the presence of cocaine (dogs): significant hypertension

Compound: N-(4-(4-(2-Chloro-3-ethylphenyl)piperazin-1-yl)butyl)-6-methylimidazo[2,1-b]thiazole-5-carboxamide [Compound 28]
- Ki (human D2LR): 4.65 ± 1.24 nM
- Ki (human D4.4R): 143 ± 3.18 nM
- D2R/D3R (human D3R; binding selectivity, ratio of Ki values (fold)): 5
- Ki (human D3R; read-out: D3R Ki ± S.E.M., full-length analogues, HEK 293): 0.941 ± 0.13 nM
